Assay results as given in ChEMBL document CHEMBL3991601, “The target landscape of clinical kinase drugs” (Science, 2017).
Active and inactive are the calls of the source. Unless noted, no cut-off for these calls is given here.

Key:
[1] = target: T1, General transcription and DNA repair factor IIH helicase subunit XPD (Homo sapiens, UniProt P18074)
T1 sequence (P18074 whole entry): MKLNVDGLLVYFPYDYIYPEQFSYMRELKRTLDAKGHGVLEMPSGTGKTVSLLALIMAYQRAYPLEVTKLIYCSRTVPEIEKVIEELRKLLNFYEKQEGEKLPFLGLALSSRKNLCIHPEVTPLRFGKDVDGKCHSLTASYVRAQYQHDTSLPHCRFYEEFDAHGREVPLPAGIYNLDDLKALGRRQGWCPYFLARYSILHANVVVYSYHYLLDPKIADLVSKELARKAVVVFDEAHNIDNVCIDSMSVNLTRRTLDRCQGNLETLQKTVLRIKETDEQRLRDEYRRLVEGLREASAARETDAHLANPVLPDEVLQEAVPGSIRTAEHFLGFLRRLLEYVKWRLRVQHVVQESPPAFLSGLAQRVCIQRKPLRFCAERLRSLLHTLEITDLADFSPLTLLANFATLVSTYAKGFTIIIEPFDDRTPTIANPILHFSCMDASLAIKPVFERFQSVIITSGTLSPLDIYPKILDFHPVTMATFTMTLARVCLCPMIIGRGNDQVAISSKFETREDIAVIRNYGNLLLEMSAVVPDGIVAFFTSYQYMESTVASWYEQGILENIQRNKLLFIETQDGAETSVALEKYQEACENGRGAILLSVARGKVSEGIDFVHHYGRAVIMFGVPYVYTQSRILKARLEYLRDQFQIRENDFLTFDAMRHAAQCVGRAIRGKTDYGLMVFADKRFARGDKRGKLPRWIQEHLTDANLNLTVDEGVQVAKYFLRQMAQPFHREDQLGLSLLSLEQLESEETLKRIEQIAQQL

[2] = target: 5'-AMP-activated protein kinase subunit gamma-1 (Homo sapiens, UniProt P54619)
[3] = target: T2, Uncharacterized protein FLJ45252 (Homo sapiens, UniProt Q6ZSR9)
T2 sequence (Q6ZSR9 whole entry): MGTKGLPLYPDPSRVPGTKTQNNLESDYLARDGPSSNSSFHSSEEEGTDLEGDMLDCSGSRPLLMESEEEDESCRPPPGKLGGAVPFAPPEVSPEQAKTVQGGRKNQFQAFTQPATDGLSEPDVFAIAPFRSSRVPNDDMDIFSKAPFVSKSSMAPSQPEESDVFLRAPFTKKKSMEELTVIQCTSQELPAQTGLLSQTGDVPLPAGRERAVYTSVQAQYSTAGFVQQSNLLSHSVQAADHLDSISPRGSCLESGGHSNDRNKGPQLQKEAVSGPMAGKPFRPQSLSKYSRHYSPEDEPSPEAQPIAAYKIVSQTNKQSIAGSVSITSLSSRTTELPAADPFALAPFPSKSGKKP

[4] = target: 5'-AMP-activated protein kinase subunit gamma-2 (Homo sapiens, UniProt Q9UGJ0)
[5] = target: Nucleoside diphosphate kinase B (Homo sapiens, UniProt P22392)
[6] = target: Serine/threonine-protein kinase 38 (Homo sapiens, UniProt Q15208)
[7] = target: Putative nucleoside diphosphate kinase (Homo sapiens, UniProt O60361)
[8] = target: ALK tyrosine kinase receptor (Homo sapiens, UniProt Q9UM73); assay type: subcellular, K-562, COLO 205, SK-N-BE(2) and MV-4-11, Cell lysate; details: read-out: Kd apparent
[9] = target: Serine/threonine-protein kinase PLK1 (Homo sapiens, UniProt P53350)
Chain of Serine/threonine-protein kinase PLK1 (P53350 whole entry): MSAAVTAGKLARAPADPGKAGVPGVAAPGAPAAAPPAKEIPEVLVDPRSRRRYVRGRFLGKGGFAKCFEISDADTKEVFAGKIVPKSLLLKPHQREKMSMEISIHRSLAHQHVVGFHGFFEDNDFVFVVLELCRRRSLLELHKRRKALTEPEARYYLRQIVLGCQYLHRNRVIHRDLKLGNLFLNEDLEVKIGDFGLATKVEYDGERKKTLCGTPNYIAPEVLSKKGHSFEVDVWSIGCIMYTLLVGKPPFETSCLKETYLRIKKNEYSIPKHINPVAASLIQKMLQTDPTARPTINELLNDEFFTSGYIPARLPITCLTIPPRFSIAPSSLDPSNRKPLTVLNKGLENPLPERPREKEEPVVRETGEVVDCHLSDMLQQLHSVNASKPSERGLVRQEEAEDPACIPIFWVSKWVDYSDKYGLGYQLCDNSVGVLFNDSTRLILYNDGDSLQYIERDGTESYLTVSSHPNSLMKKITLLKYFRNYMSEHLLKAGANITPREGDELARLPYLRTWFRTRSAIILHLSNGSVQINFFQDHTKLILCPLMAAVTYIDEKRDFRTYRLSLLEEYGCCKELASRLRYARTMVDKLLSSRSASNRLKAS

Chain of 5'-AMP-activated protein kinase subunit gamma-2 (Q9UGJ0 whole entry): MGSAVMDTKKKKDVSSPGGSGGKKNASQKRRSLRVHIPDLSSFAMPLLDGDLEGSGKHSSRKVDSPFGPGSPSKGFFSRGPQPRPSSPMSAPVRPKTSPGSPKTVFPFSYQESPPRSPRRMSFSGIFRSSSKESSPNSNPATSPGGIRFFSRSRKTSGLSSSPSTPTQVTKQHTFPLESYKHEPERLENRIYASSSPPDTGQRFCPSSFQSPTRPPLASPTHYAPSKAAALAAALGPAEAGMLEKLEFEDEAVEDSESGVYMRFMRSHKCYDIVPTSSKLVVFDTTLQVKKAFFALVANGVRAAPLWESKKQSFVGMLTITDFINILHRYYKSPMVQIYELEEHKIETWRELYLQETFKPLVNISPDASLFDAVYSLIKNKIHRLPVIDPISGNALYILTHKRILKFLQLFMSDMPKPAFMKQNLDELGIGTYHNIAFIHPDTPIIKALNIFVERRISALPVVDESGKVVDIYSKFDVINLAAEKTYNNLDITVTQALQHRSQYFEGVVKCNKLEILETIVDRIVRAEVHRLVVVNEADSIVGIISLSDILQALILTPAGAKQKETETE
Chain of 5'-AMP-activated protein kinase subunit gamma-1 (P54619 whole entry): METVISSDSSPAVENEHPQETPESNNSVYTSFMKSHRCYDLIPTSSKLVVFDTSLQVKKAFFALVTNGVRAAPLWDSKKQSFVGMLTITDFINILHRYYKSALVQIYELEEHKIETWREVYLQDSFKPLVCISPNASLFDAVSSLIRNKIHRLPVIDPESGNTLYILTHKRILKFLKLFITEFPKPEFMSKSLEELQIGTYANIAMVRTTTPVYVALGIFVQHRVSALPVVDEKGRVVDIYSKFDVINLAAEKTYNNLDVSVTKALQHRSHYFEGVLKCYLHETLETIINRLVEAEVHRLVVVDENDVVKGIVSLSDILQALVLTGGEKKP
Chain of ALK tyrosine kinase receptor (Q9UM73 whole entry): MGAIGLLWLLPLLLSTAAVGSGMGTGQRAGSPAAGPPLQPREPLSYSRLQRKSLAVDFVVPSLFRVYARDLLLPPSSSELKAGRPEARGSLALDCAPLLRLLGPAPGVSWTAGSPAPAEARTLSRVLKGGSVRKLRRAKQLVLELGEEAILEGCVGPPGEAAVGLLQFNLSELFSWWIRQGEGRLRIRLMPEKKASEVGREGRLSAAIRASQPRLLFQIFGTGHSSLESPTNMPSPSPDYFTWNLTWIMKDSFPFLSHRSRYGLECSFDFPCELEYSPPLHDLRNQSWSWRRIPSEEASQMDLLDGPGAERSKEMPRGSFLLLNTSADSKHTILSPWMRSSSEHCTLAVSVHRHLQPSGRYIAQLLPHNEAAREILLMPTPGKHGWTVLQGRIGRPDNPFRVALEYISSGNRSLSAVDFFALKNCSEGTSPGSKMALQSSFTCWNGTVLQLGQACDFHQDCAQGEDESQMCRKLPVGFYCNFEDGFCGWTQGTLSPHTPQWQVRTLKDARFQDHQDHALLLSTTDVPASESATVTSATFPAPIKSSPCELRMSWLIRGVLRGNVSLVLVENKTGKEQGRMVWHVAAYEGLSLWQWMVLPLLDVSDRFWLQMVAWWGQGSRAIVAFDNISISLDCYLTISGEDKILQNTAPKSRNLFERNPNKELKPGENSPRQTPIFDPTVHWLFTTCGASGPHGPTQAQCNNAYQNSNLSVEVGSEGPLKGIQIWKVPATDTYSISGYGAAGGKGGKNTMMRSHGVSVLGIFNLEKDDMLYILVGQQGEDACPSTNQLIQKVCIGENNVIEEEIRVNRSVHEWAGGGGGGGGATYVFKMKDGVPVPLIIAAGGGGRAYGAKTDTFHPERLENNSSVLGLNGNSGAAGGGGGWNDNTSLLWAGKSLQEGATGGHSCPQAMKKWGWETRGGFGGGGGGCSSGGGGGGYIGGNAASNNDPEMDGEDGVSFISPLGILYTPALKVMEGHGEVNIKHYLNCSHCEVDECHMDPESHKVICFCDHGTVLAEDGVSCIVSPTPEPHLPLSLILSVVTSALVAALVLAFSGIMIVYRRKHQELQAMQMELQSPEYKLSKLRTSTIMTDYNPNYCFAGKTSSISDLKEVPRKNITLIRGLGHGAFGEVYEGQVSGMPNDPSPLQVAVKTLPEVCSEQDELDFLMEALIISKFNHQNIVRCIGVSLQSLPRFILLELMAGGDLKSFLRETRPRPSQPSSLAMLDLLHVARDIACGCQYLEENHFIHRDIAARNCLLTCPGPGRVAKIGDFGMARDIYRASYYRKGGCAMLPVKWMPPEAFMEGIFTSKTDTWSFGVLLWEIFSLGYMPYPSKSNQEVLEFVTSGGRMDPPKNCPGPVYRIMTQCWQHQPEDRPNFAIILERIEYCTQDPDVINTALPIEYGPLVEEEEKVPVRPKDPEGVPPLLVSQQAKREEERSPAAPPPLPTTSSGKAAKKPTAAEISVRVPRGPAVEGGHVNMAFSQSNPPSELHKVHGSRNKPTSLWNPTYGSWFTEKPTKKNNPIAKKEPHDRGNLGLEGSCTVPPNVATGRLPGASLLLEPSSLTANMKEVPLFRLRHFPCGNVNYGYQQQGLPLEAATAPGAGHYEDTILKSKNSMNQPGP
Chain of Putative nucleoside diphosphate kinase (O60361 whole entry): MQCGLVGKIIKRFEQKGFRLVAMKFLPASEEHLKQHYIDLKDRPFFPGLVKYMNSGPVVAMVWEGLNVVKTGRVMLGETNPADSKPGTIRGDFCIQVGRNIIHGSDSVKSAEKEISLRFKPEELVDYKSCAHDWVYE
Chain of Nucleoside diphosphate kinase B (P22392 whole entry): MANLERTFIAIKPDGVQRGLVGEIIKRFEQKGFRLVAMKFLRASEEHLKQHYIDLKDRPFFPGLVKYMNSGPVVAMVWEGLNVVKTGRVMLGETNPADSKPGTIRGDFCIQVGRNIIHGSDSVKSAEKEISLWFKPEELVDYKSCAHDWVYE
Chain of Serine/threonine-protein kinase 38 (Q15208 whole entry): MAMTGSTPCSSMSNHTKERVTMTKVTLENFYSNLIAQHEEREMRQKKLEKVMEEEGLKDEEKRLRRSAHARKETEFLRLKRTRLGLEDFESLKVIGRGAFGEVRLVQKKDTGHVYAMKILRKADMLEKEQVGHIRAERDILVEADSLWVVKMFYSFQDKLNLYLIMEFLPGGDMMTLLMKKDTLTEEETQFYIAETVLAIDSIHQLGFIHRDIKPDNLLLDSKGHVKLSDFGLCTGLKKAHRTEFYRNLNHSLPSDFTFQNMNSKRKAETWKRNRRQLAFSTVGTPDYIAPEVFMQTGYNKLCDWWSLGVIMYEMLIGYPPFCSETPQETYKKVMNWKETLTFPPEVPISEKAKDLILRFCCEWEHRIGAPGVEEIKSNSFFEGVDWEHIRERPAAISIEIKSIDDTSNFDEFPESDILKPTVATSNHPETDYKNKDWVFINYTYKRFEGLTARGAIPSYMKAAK

COc1cc2c(Oc3ccc4[nH]c(C)cc4c3F)ncnc2cc1OCCCN1CCCC1 [CEDIRANIB]
Kd [1]: > 30 µM (inactive) | Kd [2]: > 30 µM (inactive) | Kd [3]: > 30 µM (inactive) | Kd [4]: > 30 µM (inactive)

C=CC(=O)Nc1cc(Nc2nccc(-c3cn(C)c4ccccc34)n2)c(OC)cc1N(C)CCN(C)C [OSIMERTINIB]
Kd [1]: > 30 µM (inactive) | Kd [2]: > 30 µM (inactive) | Kd [5]: > 30 µM (inactive) | Kd [6]: > 30 µM (inactive) | Kd [3]: > 30 µM (inactive) | Kd [7]: > 30 µM (inactive) | Kd [4]: > 30 µM (inactive)

NC(=O)c1ccc(N(C(N)=O)c2c(F)cccc2F)nc1-c1ccc(F)cc1F [VX-702]
Kd [5]: > 30 µM (inactive) | Kd [6]: > 30 µM (inactive) | Kd [8]: 2 nM | Kd [9]: > 30 µM (inactive) | Kd [7]: > 30 µM (inactive)

FC(F)(F)c1ccc(CNc2ccc(Cc3c[nH]c4ncc(Cl)cc34)cn2)cn1 [PEXIDARTINIB]
Kd [1]: > 30 µM (inactive) | Kd [2]: > 30 µM (inactive) | Kd [3]: 1.45 µM (active) | Kd [8]: > 30000 nM (inactive) | Kd [4]: > 30 µM (inactive)
